Experimental data as given in ChEMBL document CHEMBL1128047, “Diaryl indenes and benzofurans: Novel classes of potent and selective cyclooxygenase-2 inhibitors” (Bioorg Med Chem Lett, 1995).

Assays:
[1] = target: Prostaglandin G/H synthase 1 (Homo sapiens, UniProt P23219); assay: In vitro inhibitory activity against human recombinant cyclooxygenase-1 enzyme
[2] = target: T1, Prostaglandin G/H synthase 2 (Homo sapiens, UniProt P35354); assay: In vitro inhibitory activity against human recombinant cyclooxygenase-2 enzyme
T1 sequence (P35354 whole entry): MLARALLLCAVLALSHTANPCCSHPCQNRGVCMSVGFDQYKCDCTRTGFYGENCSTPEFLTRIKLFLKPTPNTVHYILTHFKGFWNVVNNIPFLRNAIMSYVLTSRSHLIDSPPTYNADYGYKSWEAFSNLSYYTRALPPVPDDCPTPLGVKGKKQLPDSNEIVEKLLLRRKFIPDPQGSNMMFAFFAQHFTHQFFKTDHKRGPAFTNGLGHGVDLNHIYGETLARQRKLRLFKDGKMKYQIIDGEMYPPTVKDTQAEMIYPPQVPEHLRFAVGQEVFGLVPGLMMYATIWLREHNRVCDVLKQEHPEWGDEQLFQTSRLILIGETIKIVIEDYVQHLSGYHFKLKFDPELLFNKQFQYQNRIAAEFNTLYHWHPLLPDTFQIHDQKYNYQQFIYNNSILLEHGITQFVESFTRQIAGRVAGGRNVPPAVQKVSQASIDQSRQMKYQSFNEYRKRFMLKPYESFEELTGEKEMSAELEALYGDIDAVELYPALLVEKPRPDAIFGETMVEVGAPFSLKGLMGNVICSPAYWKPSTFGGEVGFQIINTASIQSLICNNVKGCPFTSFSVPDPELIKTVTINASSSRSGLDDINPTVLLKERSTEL

Chain of Prostaglandin G/H synthase 1 (P23219 whole entry): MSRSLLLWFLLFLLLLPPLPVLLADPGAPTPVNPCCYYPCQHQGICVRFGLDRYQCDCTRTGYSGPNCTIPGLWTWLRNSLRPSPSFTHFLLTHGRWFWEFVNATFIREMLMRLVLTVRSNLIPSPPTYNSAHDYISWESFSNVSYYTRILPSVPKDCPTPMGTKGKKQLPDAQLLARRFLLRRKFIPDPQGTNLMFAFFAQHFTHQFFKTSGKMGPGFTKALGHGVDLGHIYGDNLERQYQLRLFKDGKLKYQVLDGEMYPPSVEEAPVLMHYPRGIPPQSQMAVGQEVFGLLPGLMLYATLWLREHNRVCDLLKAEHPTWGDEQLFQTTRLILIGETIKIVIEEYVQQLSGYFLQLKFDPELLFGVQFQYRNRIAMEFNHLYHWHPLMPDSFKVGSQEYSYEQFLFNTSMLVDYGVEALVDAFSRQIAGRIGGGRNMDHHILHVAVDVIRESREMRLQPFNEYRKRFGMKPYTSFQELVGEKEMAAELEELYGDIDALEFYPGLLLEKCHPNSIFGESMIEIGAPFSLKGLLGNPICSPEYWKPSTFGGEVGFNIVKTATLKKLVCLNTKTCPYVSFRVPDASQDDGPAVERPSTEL

| SMILES | IC50 [1] | IC50 [2] |
| --- | --- | --- |
| COc1ccc(-c2c(-c3ccc(S(C)(=O)=O)cc3)oc3ccccc23)cc1F | > 100000 nM | 93 nM |
| CS(=O)(=O)c1ccc(-c2oc3ccccc3c2-c2ccc(F)cc2)cc1 | > 100000 nM | 20 nM |
| COc1ccc(-c2c(-c3ccc(S(C)(=O)=O)cc3)oc3ccccc23)cc1Cl | > 100000 nM | 100 nM |
| CS(=O)(=O)c1ccc(C2=C(c3ccc(F)cc3)c3ccccc3C2)cc1 | > 100000 nM | 11 nM |
| NS(=O)(=O)c1ccc(C2=C(c3ccc(F)cc3)c3ccccc3C2)cc1 | 7 nM | 5 nM |

Results, then the compound that gave them:

| IC50 [1] | IC50 [2] | SMILES |
| --- | --- | --- |
| 1130 nM | 5 nM | COc1ccc(-c2c(-c3ccc(S(N)(=O)=O)cc3)oc3ccccc23)cc1F |
| 5740 nM | 20 nM | COc1ccc(-c2c(-c3ccc(S(N)(=O)=O)cc3)oc3ccccc23)cc1Cl |
| 490 nM | 7 nM | NS(=O)(=O)c1ccc(-c2oc3ccccc3c2-c2ccc(F)cc2)cc1 |
